In US10610522B2, “Methods for retreating irritable bowel syndrome (IBS)” (Salix Pharmaceuticals, Inc., priority 2014, dated 2020):

Tested on: C. difficile infection (CDI)
Assay: Double-blind non-inferiority trial rifaximin 400 mg TID vs vancomycin 125 mg QID, 10 days, C. difficile infection
Format: in vivo, human
Description: Criteria for entry into the trial were: • Age >=18 years old; • Had acute diarrhea at screening defined as >=3 unformed stools in the last 24 hours and at least one sign of enteric infection (fever, nausea, lose of appetite, vomiting, severe abdominal pain/discomfort); and • a positive C. diff stool toxin assay Endpoint:
The primary efficacy endpoint of the study was defined as the proportion of subjects achieving clinical success. Specifically, clinical success was defined as the absence of severe abdominal pain at Test of Cure (TOC), absence of fever (<38° C.) at TOC, and <3 unformed stools for two consecutive days at TOC.
Clinical success was defined as the: Absence of severe abdominal pain at TOC, absence of fever (<38° C.) at TOC, and <3 unformed stools for two consecutive days at TOC. Test of cure defined as Day 14+/−1 day.
Recurrence was defined to be a diarrhea and a positive C. diff stool toxin assay that occurred after initial clinical success.
Global cure of diarrhea was defined as subjects who were cured of diarrhea at TOC without recurrence at follow up.
Subjects who completed the study without achieving clinical success were censored at Day 14

[1] = Rifaximin N = 117, Vancomycin N = 115
[2] = adjusting for concomitant medication usage, Rifaximin N = 109, Vancomycin N = 112
[3] = adjusting for concomitant medication usage, Rifaximin N = 117, Vancomycin N = 115
[4] = after initial clinical success, Rifaximin N = 67, Vancomycin N = 73
[5] = all subjects, Rifaximin N = 117, Vancomycin N = 115
[6] = at TOC, Rifaximin N = 108, Vancomycin N = 111
[7] = at TOC, Rifaximin N = 117, Vancomycin N = 115
[8] = cured at TOC without recurrence at follow up, Rifaximin N = 117, Vancomycin N = 115
[9] = subgroup Age <65, at TOC, Rifaximin N = 69, Vancomycin N = 62
[10] = subgroup Age >=65, at TOC, Rifaximin N = 39, Vancomycin N = 49
[11] = subgroup Female, at TOC, Rifaximin N = 68, Vancomycin N = 64
[12] = subgroup Male, at TOC, Rifaximin N = 40, Vancomycin N = 47

SMILES: CN[C@H](CC(C)C)C(=O)N[C@H]1C(=O)N[C@@H](CC(N)=O)C(=O)N[C@H]2C(=O)N[C@H]3C(=O)N[C@H](C(=O)N[C@H](C(=O)O)c4cc(O)cc(O)c4-c4cc3ccc4O)[C@H](O)c3ccc(c(Cl)c3)Oc3cc2cc(c3O[C@@H]2O[C@H](CO)[C@@H](O)[C@H](O)[C@H]2O[C@H]2C[C@](C)(N)[C@H](O)[C@H](C)O2)Oc2ccc(cc2Cl)[C@H]1O [Vancomycin]
- Continuing Illness No: % of subjects [1]: 86%
- Continuing Illness No: number of subjects [1]: 99
- Continuing Illness Yes: % of subjects [1]: 14%
- Continuing Illness Yes: number of subjects [1]: 16
- Global Cure of Diarrhea No: % of subjects [1]: 26%
- Global Cure of Diarrhea No: number of subjects [1]: 30
- Diarrhea No: % of subjects [2]: 73%
- Diarrhea No: number of subjects [2]: 82
- Diarrhea Yes: % of subjects [2]: 27%
- Diarrhea Yes: number of subjects [2]: 30
- Clinical Success No: % of subjects [3]: 40%
- Clinical Success No: number of subjects [3]: 46
- Clinical Success Yes: % of subjects [3]: 60%
- Clinical Success Yes: number of subjects [3]: 69
- No Recurrence of CDI: % of subjects [4]: 86%
- No Recurrence of CDI: number of subjects [4]: 63
- Recurrence of CDI: % of subjects [4]: 14%
- Recurrence of CDI: number of subjects [4]: 10
- Recurrence No: % of subjects [5]: 93%
- Recurrence No: number of subjects [5]: 105
- Recurrence Yes: % of subjects [5]: 7%
- Recurrence Yes: number of subjects [5]: 10
- Diarrhea No: % of subjects [6]: 81%
- Diarrhea No: number of subjects [6]: 90
- Diarrhea Yes: % of subjects [6]: 19%
- Diarrhea Yes: number of subjects [6]: 21
- Fever No: % of subjects [6]: 98%
- Fever No: number of subjects [6]: 109
- Fever Yes: % of subjects [6]: 2 (2%)
- Fever Yes: number of subjects [6]: 2 (2%)
- Severe Abdominal Pain/Discomfort No: % of subjects [6]: 86%
- Severe Abdominal Pain/Discomfort No: number of subjects [6]: 95
- Severe Abdominal Pain/Discomfort Yes: % of subjects [6]: 14%
- Severe Abdominal Pain/Discomfort Yes: number of subjects [6]: 16
- Clinical Success No: % of subjects [7]: 37%
- Clinical Success No: number of subjects [7]: 42
- Clinical Success Yes: % of subjects [7]: 64%
- Clinical Success Yes: number of subjects [7]: 73
- Global Cure of Diarrhea Yes: % of subjects [8]: 74%
- Global Cure of Diarrhea Yes: number of subjects [8]: 85
- Adjusted mean number of unformed stools-ANOVA (during the treatment period, Rifaximin N = 117, Vancomycin N = 115): 1.90
- Diarrhea: % of subjects [9]: 19%
- Diarrhea: number of subjects [9]: 12
- No Diarrhea: % of subjects [9]: 81%
- No Diarrhea: number of subjects [9]: 50
- Diarrhea: % of subjects [10]: 18%
- Diarrhea: number of subjects [10]: 9
- No Diarrhea: % of subjects [10]: 82%
- No Diarrhea: number of subjects [10]: 40
- Diarrhea: % of subjects [11]: 17%
- Diarrhea: number of subjects [11]: 11
- No Diarrhea: % of subjects [11]: 83%
- No Diarrhea: number of subjects [11]: 53
- Diarrhea: % of subjects [12]: 21%
- Diarrhea: number of subjects [12]: 10
- No Diarrhea: % of subjects [12]: 79%
- No Diarrhea: number of subjects [12]: 37
